The source of these data is article PMC9104286, “Characterization of a Cutibacterium acnes Camp Factor 1-Related Peptide as a New TLR-2 Modulator in In Vitro and Ex Vivo Models of Inflammation” (International Journal of Molecular Sciences, 2022).

In assay [1] the test system is S. epidermidis. Put plainly: Bacterial growth monitored at 620 nm. In kind it is cell-based, Staphylococcus epidermidis. As to conditions: 24 h; B2 at 1 to 128 μM; antibiotics as positive control; growth at 620 nm. The source says:
(§1) As a positive control for growth inhibition, we cultured the bacteria in the presence of the antibiotic ampicillin, doxycycline and clindamycin.
(§2) Bacterial growth was monitored at 620 nm.
(§3) We used 24 strains of C. acnes in the study: strain 6919 (Type IA1) from the American Type Culture Collection (Manassas, VA) and strains isolated from various infections (13 bone and joint infections, 1 case of pleuritis, 1 case of appendicitis, 1 case of pericarditis, 1 case of pneumonia, 3 cutaneous infections, 1 case of bacteremia and 2 ascitic fluid infections). C. acnes strains RON (IA1), TRI (IA2), LIE (IA2), CHR (IA2), GUE (IB) and PIE (IB) were isolated from patients with joint infections. All these strains were kindly provided by Dr. Philippe Morand from the Bacteriology Department at Cochin Hospital, Paris, France. C. acnes strains were grown under anaerobic conditions in liquid or solidified reinforced clostridial medium (RCM; Difco Laboratories, Detroit, MI, USA), in a GasPak™ EZ Anaerobic Container System (Becton Dickinson & Co, Franklin Lakes, NJ, USA) at 37 °C. For routine culture, 100 mL of RCM was used and the bacteria were harvested after 5 days at 37 °C, by centrifugation at 7,000 x g for 10 min and 4 °C. The pellets were pooled and washed in about 30 mL cold sterile phosphate-buffered saline (PBS) (1.5 mM KH2PO4, 2.7 mM Na2HPO4.7H2O, 0.15 M NaCl (pH 7.4)), and were then centrifuged again, as described above. The final bacterial pellet was suspended in sterile PBS (1:10 based on the volume of the culture). Staphylococcus aureus (ATCC #25923) and Staphylococcus epidermidis (ATCC #12228) were grown in tryptic soy broth (TSB) and brain heart infusion (BHI) (Sigma-Aldrich, Saint-Louis, MO, USA) under aerobic conditions at 37 °C.

Assay [2] concerns C. acnes 6919. Nature of the assay: Bacterial growth monitored at 620 nm. In kind it is cell-based, Cutibacterium acnes. The following applies: C. acnes 6919, 5 days; B2 at 1 to 128 μM; antibiotics as positive control; growth at 620 nm.
Source text: as §1, §2, §3

Assay [3] relates to S. aureus. Nature of the assay: Bacterial growth monitored at 620 nm. The format is cell-based, Staphylococcus aureus. As to conditions: 24 h; B2 at 1 to 128 μM; antibiotics as positive control; growth at 620 nm.
Source text: as §1, §2, §3

Assay [4] has as its system human skin explants. Nature of the assay: Ex vivo human skin explants, induction of proinflammatory molecules by stimuli. In kind it is cell-based. As to conditions: skin explants stimulated 18 h, LPS or PGN 5 µg/ml, Luminex, culture supernatant, mean ± SEM, n = 6.

Regarding `CC1(C)S[C@@H]2[C@H](NC(=O)[C@H](N)c3ccccc3)C(=O)N2[C@H]1C(=O)O` [ampicillin], in assay [1], the “effect on growth of S. epidermidis (in words)” value is “resistant”. For the same compound, the “effect on growth of C. acnes (in words)” value in assay [2] was “susceptible”. For the same compound, in assay [3], the “effect on growth of S. aureus (in words)” value was “susceptible”.

Consider `CCC[C@@H]1C[C@@H](C(=O)N[C@@H]([C@H]2O[C@H](SC)[C@H](O)[C@@H](O)[C@H]2O)[C@H](C)Cl)N(C)C1` [clindamycin], for which, in assay [1], the “effect on growth of S. epidermidis (in words)” value is listed as “susceptible”. Also, the “effect on growth of C. acnes (in words)” value in assay [2] was “susceptible”. For the same compound, in assay [3], the “effect on growth of S. aureus (in words)” value is given as “susceptible”.

For `C[C@H]1c2cccc(O)c2C(=O)C2=C(O)[C@]3(O)C(=O)C(C(N)=O)=C(O)[C@@H](N(C)C)[C@@H]3[C@@H](O)[C@@H]21` [doxycycline], in assay [1], the “effect on growth of S. epidermidis (in words)” value was “susceptible”. Besides, in assay [2], the “effect on growth of C. acnes (in words)” value was “susceptible”. Also, in assay [3], the “effect on growth of S. aureus (in words)” value is on record as “susceptible”.

In assay [4], lipopolysaccharide [LPS] came in with a GM-CSF levels of 765 ± 30 pg/mL, an IL-1β levels of 392 ± 5.6 pg/mL, an IL-10 production of 10 ± 0.3 pg/mL and a TNF-α production of 22 ± 1.7 pg/mL.

In assay [4], peptidoglycan [PGN] displayed a GM-CSF levels of 4733 ± 218 pg/mL, an IL-1β levels of 23 ± 0.8 pg/mL, an IL-10 production of 35 ± 1.4 pg/mL and a TNF-α production of 126 ± 9.3 pg/mL.
